Article PMC10690091 (Cancer Research, 2023)

Tests used:
ST1799/HI/PBR PDX = experiment: Efficacy in palbociclib-resistant ST1799/HI/PBR PDX model; format: in vivo, mice; settings: camizestrant 10 mg/kg daily, palbociclib 50 mg/kg, abemaciclib 50 mg/kg, capivasertib 130 mg/kg, 40 days
Procedure: For all PDX models, tumors were measured twice weekly; changes in tumor volume and growth inhibition were determined by bilateral Vernier caliper measurement (length x width). Length was the longest diameter across the tumor and width the corresponding perpendicular.
For efficacy studies, animals were randomized into treatment groups and dosing started once tumor volume reached 150–300 mm^3. Details of efficacy studies, and group sizes and treatments are described in corresponding figure legends. PDX models in Fig. 6 and Supplementary Fig. S1 were part of the multi-arm study (with arms irrelevant to this publication) with common control monotherapy arms (e.g., the vehicle-treated group).
(TV) was calculated using the formula: TV (mm3) = (3.142 x max (length:width) x min […]
established tumors were removed from two donor mice and dissected into 3x3x3 mm pieces in RPMI 1640 media. […] TV was calculated as TV (mm3) = width2 x length x 0.52.
For the combination studies in the CTC174 PDX model (hormone-independent), established tumors were removed from donor mice and dissected into 3x3x3 mm pieces in RPMI 1640 media. […] TV was calculated using the formula: TV (mm3) = (3.142 x max (length:width) x min (length:width) x min (length:width))/6,000, or (mm3) = width2 x length x 0.52 for the CTC174 study. […]

[1] = target: T1, ER in Ishikawa endometrial cancer cell line (Homo sapiens, UniProt P03372); experiment: ER degradation and agonism (PgR expression) in Ishikawa cells; format: cell-based
T1 sequence (P03372 1-595): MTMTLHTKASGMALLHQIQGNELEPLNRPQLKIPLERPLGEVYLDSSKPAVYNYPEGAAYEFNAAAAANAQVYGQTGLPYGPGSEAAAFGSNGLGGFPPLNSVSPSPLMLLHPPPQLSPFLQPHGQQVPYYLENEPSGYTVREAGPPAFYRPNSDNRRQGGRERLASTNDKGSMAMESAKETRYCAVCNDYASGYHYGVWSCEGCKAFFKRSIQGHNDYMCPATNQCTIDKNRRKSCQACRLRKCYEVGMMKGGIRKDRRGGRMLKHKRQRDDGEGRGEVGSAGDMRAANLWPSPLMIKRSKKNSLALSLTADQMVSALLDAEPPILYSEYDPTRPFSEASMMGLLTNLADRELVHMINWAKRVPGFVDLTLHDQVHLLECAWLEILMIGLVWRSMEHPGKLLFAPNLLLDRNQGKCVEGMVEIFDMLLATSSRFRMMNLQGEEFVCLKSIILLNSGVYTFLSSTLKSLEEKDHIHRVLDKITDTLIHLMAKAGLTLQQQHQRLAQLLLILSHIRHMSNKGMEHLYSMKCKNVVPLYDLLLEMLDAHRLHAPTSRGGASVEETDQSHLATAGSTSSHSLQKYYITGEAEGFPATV
Procedure: Cells were seeded into 12-well tissue culture-treated plates (0.5×10^6 cells/well) in phenol red-free RPMI medium containing 5% (v/v) charcoal-stripped FBS.
Cell lysates were loaded on NuPAGE 4% to 12% Bis-Tris Midi Protein Gels, transferred to nitrocellulose membranes and immunoblotted with anti-ER antibody (clone SP1, Thermo Fisher Scientific). To detect ER agonism, Ishikawa cells were incubated in media containing 5% (v/v) double charcoal-stripped FBS, achieved by stripping FBS using activated charcoal (C9157, Sigma). Blots were probed with anti-PgR antibody (clone 636, Dako) then horseradish peroxidase secondary antibody (anti-mouse, 7076 Cell Signaling Technology or anti-rabbit, 7070 Cell Signaling Technology). Protein levels were measured on the G-box using Pierce West Dura and West Femto chemiluminescent reagents and Syngene software.

ERα = target: T2, ERα (Homo sapiens, UniProt P03372); settings: 100 nmol/L
T2 sequence (P03372 1-595): T1 sequence (P03372 1-595)

ER agonism (PgR expression as a marker) [1]: no evidence of PgR expression | ER half-life (ERα): 27.6 to 42 min
SMILES: C[C@@H]1Cc2c(ccc3[nH]ncc23)[C@@H](c2ccc(NC3CN(CCCF)C3)cn2)N1CC(F)(F)F [camizestrant]
tumor growth (ST1799/HI/PBR PDX): decreased tumor growth compared with fulvestrant | ER degradation ([1]; 24 hours): degraded ER to the same extent as fulvestrant
